# Legend:
# Type in all cases: cell-based, human
# adherent PBMNC [1] = assay: Cell counts and viability of plastic adherent cells cultured with non-cytokine additives in polystyrene plates; set-up: % VIABLE: concentration or dose not given beside the values; conditions: for % VIABLE: propidium iodide
# adherent PBMNC [2] = assay: S100 immunohistochemistry of plastic adherent cells cultured with non-cytokine additives; conditions: for percentage of S100+ cells: without GM-CSF added to additives
# adherent PBMNC [3] = assay: DC morphology (Wright-Geimsa) of plastic adherent cells cultured with non-cytokine additives
# Bulk PBMNC = assay: S100+ cells in bulk PBMNC cultures with non-cytokine additives; conditions: day 7; average
# Method: Immunocytochemical staining: PBS (phosphate buffered saline) was made by dissolving 5 PBS tablets into 1000 ml millipore water. Cytospin slides were soaked in PBS. Endogenous peroxidase activity was blocked by treating slides with hydrogen peroxide/PBS (2 ml 30% H2O2+30 ml PBS) for 10 min. Slides were rinsed with PBS one time. Non-specific binding sites were blocked by incubating with normal serum matching source of secondary antibody (i.e. if secondary antibody is biotinylated goat-anti-mouse, used normal goat serum) at room temp. for 15 min. in a humidified environment. Excess serum was shaken from slides and placed 100 ul of primary antibody on slide, making sure cells are covered with liquid and incubated in humidified environment, room temp, for one hour. Negative control slides were incubated with normal serum for this hour. Slides were rinsed 3 times with PBS. Slides were incubated with biotinylated antibody reactive against the primary antibody (i.e. if primary antibody is mouse-anti-human, use a biotinylated goat-anti-mouse antibody) for 1 hour in humidity. Slides were rinsed 3 times with PBS. Slides were incubated with streptavidin-peroxidase, 2 drops/slide, for 30 min. in humidity. Slides were rinsed 3 times with PBS.
# Chromagen solution was made with 5 ml millipore water+2 drops of chromagen buffer+1 drop of concentrated chromagen+1 drop of substrate, and 4-5 drops were added to each slide. […] Slides were counterstained with hematoxylin for about 5 min, or until cell nuclei were stained purple. Cells were rinsed with tap water and allowed to air dry. Slides were covered with crystal mount and oven dried at 80 degrees for 15 min. Slides were allowed to cool, then coversliped with mounting medium.
# Culture of Bulk PBMNC: PBMNC cells were cultured in X-VIVO 15™ supplemented with 2 mM L- glutamine. Cultures were initiated at 5×^05 cells/ml in PL2417 gas-permeable containers (20 ml). GM-CSF and IL-4 were added to the cultures at final concentrations of 50 ng/ml and 1000 U/ml or non-cytokine additives such as Vitamin D3 at 2.5 uM, Vitamin E at 0.1%, Linoleic Acid at 5 ug/ml, or Ca++ Ionophore at 10 mM. Addition and subtraction of cells, media, and growth factors to and from PL2417 gas-permeable containers was accomplished by spiking a Sampling Site Coupler into the sample port of the container followed by use of syringes and needles. Cells were cultured in a 5% CO2, ambient O2, 37° C. humidified incubator for 7 days.
# Cytospin slide preparation, Wright-Geimsa and immunohistochemical staining of the cultured cells were conducted as described in Example 1 and 2 above. Mixed lymphocyte reactions (MLR's) were setup using T cells (responders) and dendritic cell enriched cultures (stimulators) from bulk PBMNC cultures, as described above in Example 1.
# The S100 protein is a nerve cell protein that has been associated with dendritic cells. In Table 47, at day 7 of culture, the highest percent of S100+ cells was present in the GM-CSF/IL-4 culture (13%).
smiles,measurement,setting,value
CCCCC/C=C\C/C=C\CCCCCCCC(=O)O [Linoleic Acid],TOTAL CELLS,"adherent PBMNC [1]; Day 4, with GM-CSF present",1.41E + 05
same,% VIABLE,"adherent PBMNC [1]; Day 4, with GM-CSF present",96.07%
same,TOTAL CELLS,"adherent PBMNC [1]; Day 4, without GM-CSF",1.99E + 05
same,% VIABLE,"adherent PBMNC [1]; Day 4, without GM-CSF",78.84%
same,TOTAL CELLS,"adherent PBMNC [1]; Day 7, with GM-CSF present",7.85E + 05
same,% VIABLE,"adherent PBMNC [1]; Day 7, with GM-CSF present",82.63%
same,TOTAL CELLS,"adherent PBMNC [1]; Day 7, without GM-CSF",1.19E + 05
same,% VIABLE,"adherent PBMNC [1]; Day 7, without GM-CSF",82.69%
same,% S100+,"adherent PBMNC [2]; Day 4, with GM-CSF present",12.00%
same,% S100+,"adherent PBMNC [2]; Day 4, without GM-CSF",20.00%
same,% S100+,"adherent PBMNC [2]; Day 7, with GM-CSF present",26.00%
same,% S100+,"adherent PBMNC [2]; Day 7, without GM-CSF",25.00%
same,percentage of S100+ cells,adherent PBMNC [2]; day 4,20%
same,percentage of S100+ cells,adherent PBMNC [2]; day 7,next highest percentages
same,% DC,"adherent PBMNC [3]; Day 4, with GM-CSF present",8.00%
same,% DC,"adherent PBMNC [3]; Day 4, without GM-CSF",3.00%
same,% DC,"adherent PBMNC [3]; Day 7, with GM-CSF present",9.00%
same,% DC,"adherent PBMNC [3]; Day 7, without GM-CSF",6.00%
same,morphologically identified DC,"adherent PBMNC [3]; day 7, without GM-CSF added to additives",next highest percentages
same,percent of S100+ cells,Bulk PBMNC,equivalent average percentages

# Source: patent US6458585B1, “Cytokine-free culture of dendritic cells” (Nexell Therapeutics Inc., priority 1996, dated 2002)
